Columns and labels:
[1] = biological target: T1, BRD4 (Homo sapiens, UniProt O60885); test: Western blot, BRD4 levels in CAL51 cells; assay type: cell-based; details: 100 nM, 72 hours
T1 construct: Western blot (antibody CST #13440)
Method: (§1) All treatments with (+)-JQ1, NZ-147 or NZ-175 were performed at 100 nM concentration over 72 hours.
(§2) Cells were homogenised in protein lysis buffer consisting of 0.1 M Tris pH 8.0, 0.1 M NaCl, 5% glycerol, IGEPAL® CA-630 (#18896. Sigma-Aldrich) and 5 mM EDTA, 0.1 M N-ethyl maleimide (ThermoFisher, #23030) and protease inhibitor (Cell Signalling Technologies, #5871). Protein concentrations were determined using the BCA assay to ensure equal loading. […] The membranes were immunoblotted with primary antibodies, overnight at 4° C. […]
(§3) Membranes were then incubated with horseradish peroxidase (HRP)-conjugated secondary antibodies (Rabbit #7074 and Mouse #7076) purchased from Cell Signalling Technologies for 1 hour and the HRP signal was detected using EZ-ECL Enhanced Chemiluminescence Detection Kit for HRP (#20-500-500, Sartorius), and imaged with an Alliance Q9 Advanced (UVITec). […]
(§4) We generated a BRD4-ULKTAC (NZ-147) by conjugating (+)-JQ1 (BRD4-targeting moiety) to NZ-60 via a PEG linker (FIG. 8A). CAL51 cells (a triple negative breast cancer cell line) were treated with DMSO, (+)-JQ1 or NZ-147 at 100 nM for 72 hours then lysed and analysed by Western blot (FIG. 8B). […]

[2] = test system: MAX; test: Western blot, MAX levels in CAL51 cells; assay type: cell-based, human; details: 100 nM, 72 hours
Method: as §1, §2, §3, §4

[3] = test system: A549 cells; test: Colony formation assay, A549; assay type: cell-based, human; details: A549, 100 nM, 72 hours
Method: (§5) A549 and H1299 cells were seeded in 12 well plates at approximately 100 cells per well. In Example 8, wells were treated with DMSO, (+)-JQ1 or NZ-147. In Example 9, cells were treated with DMSO or NZ-175. Colonies were allowed to form over 120 h. Cells were fixed and stained with crystal violet staining solution, prepared in 70% ethanol.
(§6) A colony formation assay was performed in A549 and H1299 cells, which were treated with DMSO, (+)-JQ1 or NZ-147 at 100 nM for 72 hours and stained with crystal violet (FIG. 10A).
(§7) A colony formation assay was performed in A549 and H1299 cells, which were treated with DMSO or NZ-175 at 100 nM for 72 hours and stained with crystal violet (FIG. 16A).

[4] = test system: c-MYC; test: Western blot, c-MYC levels in CAL51 cells; assay type: cell-based, human; details: 100 nM, 72 hours
Method: as §1, §2, §3, §4

[5] = test system: c-MYC; test: c-MYC immunofluorescence in hTERT-cMYC-ER expressing RPE1 cells; assay type: cell-based, human; details: 100 nM, 72 hours, with 4-OHT
Method: FIG. 9. (A) Schematic representation of hTERT-cMYC-ER expressing RPE1 cells. Treatment with 4-hydroxytamoxifen (4-OHT) translocates c-MYC-ER from the cytoplasm into the nucleus, simulating oncogenic c-MYC. (B) Immunofluorescence images of hTERT-cMYC-ER expressing RPE1 cells treated with DMSO, (+)-JQ1 or NZ-147 at 100 nM for 72 hours, each with or without 4-OHT.
RPE1-hTERT-c-MYC-ER cells were seeded in a 384 well PerkinElmer CellCarrier Ultra plate. In Example 8, cells were treated for 72 hours with DMSO, (+)-JQ1±4-OHT, or, NZ-147±4-OHT. In Example 9, cells were treated for 72 hours with 4-OHT, NZ-175, both, or neither. Thereafter, in both Examples 8 and 9, cells were fixed with 4% paraformaldehyde (PFA) in phosphate buffered saline (PBS) and blocked with 10% FBS and 0.1% Triton in PBS. Plates were incubated at 4° C. overnight, with 1:500 rabbit anti-c-MYC (D84C12) rabbit monoclonal antibody (#5605, Cell Signalling Technologies). The following day, plates were incubated with 1:1000 goat anti-rabbit Alexa 488 (ThermoFisher Scientific, #A-11008) and 1.62 μM Hoechst 33342 at room temperature for 1 hour before imaging. Excitation and emission spectra for each channel are as follows: Hoechst 33342=405/435-480 nm, Alexa 488=488/500-550 nm. Images were acquired at 40× and 63× magnification with water immersion lens.

[6] = test system: H1299 cells; test: Colony formation assay, H1299; assay type: cell-based, human
Method: as §5, §6, §7

## Cc1sc2c(c1C)C(c1ccc(Cl)cc1)=N[C@@H](CC(=O)NCCOCCOCCOCCn1cc(COc3ccc([C@@H](NC(=O)Nc4cc(C(F)(F)F)cc(C(F)(F)F)c4)C(=O)Nc4ccc(F)cc4F)cc3)nn1)c1nnc(C)n1-2 [NZ-147, (R)-2-(3-(3,5-bis(trifluoromethyl)phenyl)ureido)-2-(4-((1-(1-((S)-4-(4-chlorophenyl)-2,3,9-trimethyl-6H-thieno[3,2-f][1,2,4]triazolo[4,3-a][1,4]diazepin-6-yl)-2-oxo-6,9, 12-trioxa-3-azatetradecan-14-yl)-1H-1,2,3-triazol-4-yl)methoxy)phenyl)-N-(2,4-difluorophenyl) acetamide]
[1]
  levels of BRD4: reduced
[2]
  levels of MAX: reduced
[3]
  colony formation: Fewest colonies formed
[4]
  levels of c-MYC: reduced
[5]
  nuclear c-MYC: may show reduced nuclear c-MYC
[6]; H1299, 100 nM, 72 hours
  colony formation: Fewest colonies formed
[6]; c-MYC-amplified cell line H1299
  cell proliferation: reduced cell proliferation, exemplified further in the c-MYC-amplified cell line H1299

Source: patent US20260335323A1, “CHIMERIC MOLECULE” (UCL Business Ltd, priority 2023, published 2026)
